Data set [1] relates to Nc1ccc2nc(C3=N[C@@H](C(=O)O)CS3)sc2c1. The data set can be described thus: purified protein, by the assay type. As to conditions: 3 minutes post-substrate addition, pH 7.6.
The target of the next data set is T1, L286M + S347A luciferase (Photinus pyralis, UniProt P08659, L286M/S347A).
T1 construct: The full firefly (Photinus pyralis) luciferase gene was PCR amplified from pGL3 (Promega); GST (N, cleaved yes); made in house; host or cells: E. coli JM109
Description: Bioluminescence emission scan. Type of data set: biochemical. On the procedure:
(§1) Purified mutant luciferases were used in bioluminescence emission and burst kinetics scans.
(§2) Luciferase was rapidly injected into a cuvette containing substrate, and the emission from 400-800 nm was recorded in a SPEX FluoroMax-3 fluorimeter with closed excitation slits.

The target in another data set is T2, L342A luciferase (Photinus pyralis, UniProt P08659, L342A).
T2 construct: The full firefly (Photinus pyralis) luciferase gene was PCR amplified from pGL3 (Promega); GST (N, cleaved yes); made in house; host or cells: E. coli JM109
Description: Bioluminescence emission scan. Type of data set: biochemical. The method, then: as §1, §2

A further data set deals with T3, R218K luciferase (Photinus pyralis, UniProt P08659, R218K).
T3 construct: The full firefly (Photinus pyralis) luciferase gene was PCR amplified from pGL3 (Promega); GST (N, cleaved yes); made in house; host or cells: E. coli JM109
The data set can be described thus: Bioluminescence emission scan. Type of data set: biochemical. On the procedure:
as §1, §2

The target in data set [2] is T4, WT luciferase (Photinus pyralis, UniProt P08659).
T4 construct: The full firefly (Photinus pyralis) luciferase gene was PCR amplified from pGL3 (Promega); GST (N, cleaved yes); made in house; host or cells: E. coli JM109
Description: Titration assay with purified protein. Type of data set: biochemical. The note with it: for Km: 3 minutes post-substrate addition, read-out: Apparent Km. The method, then:
The PCR product was cloned into the BamH1 and NotI sites of pGEX6P-1 for bacterial expression. Mutant proteins were created using the Quickchange site-directed mutagenesis kit (Stratagene). Saturating mutagenesis was performed using the used the degenerate codon NNK at sites predicted to impact or alter substrate biding including F247, T251, L286, S347, R337, R218, Q338, Y340, A313, and I351 using the degenerate codon NNK. The point mutants S347A, L286A, A348G, E311A, I351A, A313G, R337A, H245A and L342A were made independently.
Luminescence assays in 96-well plates were initiated by adding 30 μL 2× substrate in 20 mM Tris pH 7.6, 0.1 mM EDTA, 8 mM MgSO4, 4 mM ATP, and 1 mM TCEP to 30 μL of 20 nM purified luciferase in 20 mM Tris pH 7.6, 0.1 mM EDTA, 1 mM TCEP and 0.4 mg/mL BSA. Titration assays were performed 3 minutes post-substrate addition in a Turner Veritas luminometer with final substrate concentrations ranging from 0.122-250 μM or 0.244-500 μM.

A further data set deals with T5, T251S mutant luciferase (Photinus pyralis, UniProt P08659, T251S).
T5 construct: The full firefly (Photinus pyralis) luciferase gene was PCR amplified from pGL3 (Promega); GST (N, cleaved yes); made in house; host or cells: E. coli JM109
The data set can be described thus: Titration assay with purified protein. Type of data set: biochemical. As to conditions: for Km: 3 minutes post-substrate addition, read-out: Apparent Km. On the procedure: (§3) The PCR product was cloned into the BamH1 and NotI sites of pGEX6P-1 for bacterial expression. Mutant proteins were created using the Quickchange site-directed mutagenesis kit (Stratagene). Saturating mutagenesis was performed using the used the degenerate codon NNK at sites predicted to impact or alter substrate biding including F247, T251, L286, S347, R337, R218, Q338, Y340, A313, and I351 using the degenerate codon NNK.
(§4) Luminescence assays in 96-well plates were initiated by adding 30 μL 2× substrate in 20 mM Tris pH 7.6, 0.1 mM EDTA, 8 mM MgSO4, 4 mM ATP, and 1 mM TCEP to 30 μL of 20 nM purified luciferase in 20 mM Tris pH 7.6, 0.1 mM EDTA, 1 mM TCEP and 0.4 mg/mL BSA.

A further data set concerns the target T6, L286M mutant luciferase (Photinus pyralis, UniProt P08659, L286M).
T6 construct: The full firefly (Photinus pyralis) luciferase gene was PCR amplified from pGL3 (Promega); GST (N, cleaved yes); made in house; host or cells: E. coli JM109
Description: Titration assay with purified protein. As to conditions: for Km: 3 minutes post-substrate addition, read-out: Apparent Km. Type of data set: biochemical. The method, then: as §3, §4

Data set [3] has as its target T4, WT luciferase. Type of data set: biochemical. As to conditions: Table 3. On the procedure: (§5) Purified mutant luciferases were used in bioluminescence emission and burst kinetics scans. Each purified protein in 20 mM Tris pH 7.6, 0.1 mM EDTA, 1 mM TCEP and 0.4 mg/mL BSA was added to 2× substrate in 20 mM Tris pH 7.6, 0.1 mM EDTA, 8 mM MgSO4, 4 mM ATP, and 1 mM TCEP in a cuvette.
as §2

A further data set has as its target T7, R218K + L342A luciferase (Photinus pyralis, UniProt P08659, L342A/R218K).
T7 construct: The full firefly (Photinus pyralis) luciferase gene was PCR amplified from pGL3 (Promega); GST (N, cleaved yes); made in house; host or cells: E. coli JM109
Type of data set: biochemical. The method, then: as §5, §2

The next data set addresses T8, S347A mutant luciferase (Photinus pyralis, UniProt P08659, S347A).
T8 construct: The full firefly (Photinus pyralis) luciferase gene was PCR amplified from pGL3 (Promega); GST (N, cleaved yes); made in house; host or cells: E. coli JM109
Type of data set: biochemical. As to conditions: purified protein; for Km: 3 minutes post-substrate addition, read-out: Apparent Km. The method, then:
as §3, §4

Another data set addresses T9, R218K mutant luciferase (Photinus pyralis, UniProt P08659, R218K).
T9 construct: The full firefly (Photinus pyralis) luciferase gene was PCR amplified from pGL3 (Promega); GST (N, cleaved yes); made in house; host or cells: E. coli JM109
Type of data set: biochemical. The note with it: for Apparent Vmax / Km: R218K luciferase, purified protein; for Km: 3 minutes post-substrate addition, read-out: Apparent Km. The method, then: as §3, §4

13 compounds from patent publication US9587266B2, “Mutant luciferases” (University of Massachusetts, priority 2011, dated 2017) can be followed below.

“And” between values parts separate entries of the source, which are not always exact repeats. Equal values may be shown once. Read-outs that look alike come from different tables or passages of the source.

What is called Km is the substrate concentration at which the rate is half of its maximum.

T9 sequence (P08659 whole entry R218K): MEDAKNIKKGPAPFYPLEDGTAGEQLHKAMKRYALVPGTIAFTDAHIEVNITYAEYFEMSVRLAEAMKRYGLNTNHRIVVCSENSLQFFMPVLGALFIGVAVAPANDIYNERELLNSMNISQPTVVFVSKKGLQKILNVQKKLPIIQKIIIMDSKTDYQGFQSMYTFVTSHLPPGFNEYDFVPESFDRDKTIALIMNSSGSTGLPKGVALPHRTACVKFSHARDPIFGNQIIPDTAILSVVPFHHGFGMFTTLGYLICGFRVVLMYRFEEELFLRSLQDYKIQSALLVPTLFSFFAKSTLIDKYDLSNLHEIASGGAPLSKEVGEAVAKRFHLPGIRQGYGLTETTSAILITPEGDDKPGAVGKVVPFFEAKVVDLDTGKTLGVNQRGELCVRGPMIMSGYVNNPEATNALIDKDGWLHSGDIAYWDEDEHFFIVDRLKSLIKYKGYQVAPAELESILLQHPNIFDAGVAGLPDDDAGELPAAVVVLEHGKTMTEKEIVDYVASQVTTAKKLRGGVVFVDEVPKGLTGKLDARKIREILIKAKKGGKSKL
T3 sequence (P08659 whole entry R218K): as above
T7 sequence (P08659 whole entry R218K/L342A): as the sequence (P08659 whole entry R218K) above, with L342A counted along it
T6 sequence (P08659 whole entry L286M): as the sequence (P08659 whole entry R218K) above, with K218R, L286M counted along it
T8 sequence (P08659 whole entry S347A): as the sequence (P08659 whole entry R218K) above, with K218R, S347A counted along it
T4 sequence (P08659 whole entry): as the sequence (P08659 whole entry R218K) above, with K218R counted along it
T5 sequence (P08659 whole entry T251S): as the sequence (P08659 whole entry R218K) above, with K218R, T251S counted along it
T1 sequence (P08659 whole entry L286M/S347A): as the sequence (P08659 whole entry R218K) above, with K218R, L286M, S347A counted along it
T2 sequence (P08659 whole entry L342A): as the sequence (P08659 whole entry R218K) above, with K218R, L342A counted along it

Regarding “R218K mutant luciferase (Photinus pyralis; R218K)”, the Michaelis constant (Km) in data set [1] (other: R218K luciferase) came out at 15.2 ± 1.1 µM.
For “S347A mutant luciferase (Photinus pyralis; S347A)”, the Km in data set [1] (other: S347A luciferase) came out at 31.0 ± 0.4 µM.
`CN(C)c1ccc2nc(C3=NC(C(=O)O)CS3)sc2c1` (centres unmarked) [6′-Me2NLH2]: the “Maximum Emission Wavelength of Selected Substrate” value on L286M + S347A luciferase was determined as 608 nm; at L342A luciferase, 619 nm; on R218K luciferase, 624 nm; at WT luciferase [3], 619 nm; on R218K + L342A luciferase it was 628 nm. In addition, the “Apparent Vmax” value was 0.5 ± 0.003 ×10^−5 cps on WT luciferase [2]; 1.6 ± 0.02 ×10^−5 cps at T251S mutant luciferase; 1.3 ± 0.01 ×10^−5 cps at L286M mutant luciferase; 2.1 ± 0.02 ×10^−5 cps at S347A mutant luciferase; 5 ± 0.1 ×10^−5 cps on R218K mutant luciferase. For the same compound, the Michaelis constant (Km) came to 0.025 ± 0.003 µM at WT luciferase [2]; 0.3 ± 0.02 µM at T251S mutant luciferase; 0.08 ± 0.005 µM on L286M mutant luciferase; 0.24 ± 0.014 µM on S347A mutant luciferase; 0.35 ± 0.04 µM on R218K mutant luciferase.
`O=C(O)C1CSC(c2nc3cc4c(cc3s2)NCCC4)=N1` (centres unmarked) [CycLuc7, 2-(5,6,7,8-Tetrahydro-thiazolo[4,5-g]quinolin-2-yl)-4,5-dihydro-thiazole-4-carboxylic acid]: the “Maximum Emission Wavelength of Selected Substrate” value at L286M + S347A luciferase is listed as 604 nm; on L342A luciferase it was 611 nm; on R218K luciferase, 620 nm; at WT luciferase [3] it was 607 nm; on R218K + L342A luciferase, 616 nm.
As for `CCCO` [Propanol], the “Maximum Emission Wavelength of Selected Substrate” value at L286M + S347A luciferase is 593 nm; at L342A luciferase it was 607 nm; at R218K luciferase, 609 nm; at WT luciferase [3], 608 nm; on R218K + L342A luciferase, 609 nm.
`CN1CCCc2cc3nc(C4=NC(C(=O)O)CS4)sc3cc21` (centres unmarked) [CycLuc8, 2-(5-Methyl-5,6,7,8-tetrahydro-thiazolo[4,5-g]quinolin-2-yl)-4,5-dihydro-thiazole-4-carboxylic acid]: the “Maximum Emission Wavelength of Selected Substrate” value came to 605 nm at L286M + S347A luciferase; 614 nm on L342A luciferase; 632 nm on R218K luciferase; 610 nm on WT luciferase [3]; 628 nm on R218K + L342A luciferase.
As for `CNc1ccc2nc(C3=NC(C(=O)O)CS3)sc2c1` (centres unmarked) [6′-MeNHLH2, Monomethylaminoluciferin], the “Maximum Emission Wavelength of Selected Substrate” value on L286M + S347A luciferase stood at 599 nm; on L342A luciferase it was 611 nm; on R218K luciferase it was 610 nm; on WT luciferase [3], 608 nm; on R218K + L342A luciferase it was 612 nm. For the same compound, the “Apparent Vmax” value is recorded as 3 ± 0.02 ×10^−5 cps on WT luciferase [2]; 8 ± 0.1 ×10^−5 cps at T251S mutant luciferase; 7 ± 0.05 ×10^−5 cps at L286M mutant luciferase; 16 ± 0.2 ×10^−5 cps at S347A mutant luciferase; 38 ± 0.5 ×10^−5 cps at R218K mutant luciferase. The Km on WT luciferase [2] was found to be 0.06 ± 0.004 µM; at T251S mutant luciferase, 0.27 ± 0.02 µM; at L286M mutant luciferase, 0.08 ± 0.005 µM; at S347A mutant luciferase, 0.47 ± 0.03 µM; at R218K mutant luciferase, 0.45 ± 0.04 µM.
For the compound “L286M mutant luciferase (Photinus pyralis; L286M)”, in data set [1] (other: L286M luciferase), the Km turned out to be 4.35 ± 0.2 µM.
Take `CC1=CC(C)(C)N(C)c2cc3sc(C4=NC(C(=O)O)CS4)nc3cc21` (centres unmarked) [CycLuc6, 2-(5,6,6,8-Tetramethyl-5,6-dihydro-thiazolo[4,5-g]quinolin-2-yl)-4,5-dihydro-thiazole-4-carboxylic acid]: the “Maximum Emission Wavelength of Selected Substrate” value at L286M + S347A luciferase is given as 628 nm; on L342A luciferase, 639 nm; at R218K luciferase, 637 nm; on WT luciferase [3] it was 636 nm; on R218K + L342A luciferase, 635 nm.
For `CN1CCOc2cc3nc(C4=NC(C(=O)O)CS4)sc3cc21` (centres unmarked) [CycLuc4, 2-(8-Methyl-7,8-dihydro-6H-5-oxa-1-thia-3,8-diaza-cyclopenta[b]naphthalen-2-yl)-4,5-dihydro-thiazole-4-carboxylic acid], in that order: 602 nm, 608 nm, 617 nm, 607 nm and 616 nm.
Take `CC1=CC(C)(C)Nc2cc3sc(C4=NC(C(=O)O)CS4)nc3cc21` (centres unmarked) [CycLuc5, 2-(6,6,8-Trimethyl-5,6-dihydro-thiazolo[4,5-g]quinolin-2-yl)-4,5-dihydro-thiazole-4-carboxylic acid]: the “Maximum Emission Wavelength of Selected Substrate” value on L286M + S347A luciferase came to 631 nm; at L342A luciferase, 631 nm; on R218K luciferase, 635 nm; on WT luciferase [3] it was 637 nm; on R218K + L342A luciferase it was 633 nm.
As for “T251S mutant luciferase (Photinus pyralis; T251S)”, in data set [1] (other: T251S luciferase), the Km was 17.3 ± 0.3 µM.
On to `CN1CCc2cc3nc(C4=N[C@@H](C(=O)O)CS4)sc3cc21` [CycLuc2], for which the “Maximum Emission Wavelength of Selected Substrate” value on L286M + S347A luciferase was determined as 608 nm; on L342A luciferase it was 611 nm; on R218K luciferase, 621 nm; at R218K luciferase (listed as Cyc2), 619 nm; at WT luciferase [3] it was 609 nm; at R218K + L342A luciferase it was 617 nm. The “Apparent Vmax” value on WT luciferase [2] was 1.3 ± 0.02 ×10^−5 cps; on T251S mutant luciferase, 4.8 ± 0.1 ×10^−5 cps; at L286M mutant luciferase it was 2.3 ± 0.02 ×10^−5 cps; on S347A mutant luciferase, 7.6 ± 0.05 ×10^−5 cps; on R218K mutant luciferase, 26 ± 0.3 ×10^−5 cps. Further, the Km was 0.13 ± 0.02 µM at T251S mutant luciferase; 0.1 ± 0.01 µM on L286M mutant luciferase; 0.11 ± 0.005 µM on S347A mutant luciferase; 0.3 µM and 0.27 µM on R218K mutant luciferase. Further, the “improvement in the maximal sustained emission” value at R218K mutant luciferase (R218K mutant relative to wild-type luciferase) amounted to 20 fold.
